Results published in US11839663B2, “Radiolabelled MGL pet ligands” (Janssen Pharmaceutica NV, priority 2019, dated 2023).

Tests used:
[1] = target: human MGL from HeLa cells (Homo sapiens (Human), UniProt Q99685); assay: MGL in vitro activity assay ([glycerol-1,3-3H]-oleyl glycerol cleavage); assay type: biochemical; conditions: 300 nM [Glycerol-1,3-3H]-oleyl glycerol, one hour incubation, endogenous MGL from HeLa cells
Protocol: The assay used to measure the in vitro activity of MGL is adapted from the assay used for another serine hydrolase (FAAH) described in Wilson et al., 2003 (A high-throughput-compatible assay for determining the activity of fatty acid amide hydrolase. Wilson S J, Lovenberg T W, Barbier A J. Anal Biochem. 2003 Jul. 15; 318(2):270-5.). The assay consists of combining endogenously expressed MGL from HeLa cells with test compounds, adding [glycerol-1,3-^3H]-oleyl glycerol, incubating for one hour, and then measuring the amount of cleaved [1,3-^3H]-glycerol that passes through an activated carbon filter. The amount of cleaved, tritiated glycerol passing through the carbon filter is proportional to the activity of the MGL enzyme in a particular well/test condition.
Standard conditions for this assay combine 300 nM [Glycerol-1,3-^3H]-oleyl glycerol with human MGL from HeLa cells and test compounds for one hour, after which the reaction is filtered through activated carbon and tritium is measured in the flow through. The test compound concentration in screening mode is 10 uM, while the highest compound concentration in IC50 assays is determined empirically. MGL is the predominant hydrolase in HeLa cells/cell homogenates.

MGL = MGL (Rattus norvegicus (Rat), UniProt Q8R431); assay: In vitro autoradiography (ARG) on frozen normal rat brain sections; assay type: binding; conditions: sagittal rat brain section 20 um, 400 uCi/ml in 50 mM Tris-HCl pH 7.4, 30 min at room temperature
Sequence of MGL (Q8R431 whole entry): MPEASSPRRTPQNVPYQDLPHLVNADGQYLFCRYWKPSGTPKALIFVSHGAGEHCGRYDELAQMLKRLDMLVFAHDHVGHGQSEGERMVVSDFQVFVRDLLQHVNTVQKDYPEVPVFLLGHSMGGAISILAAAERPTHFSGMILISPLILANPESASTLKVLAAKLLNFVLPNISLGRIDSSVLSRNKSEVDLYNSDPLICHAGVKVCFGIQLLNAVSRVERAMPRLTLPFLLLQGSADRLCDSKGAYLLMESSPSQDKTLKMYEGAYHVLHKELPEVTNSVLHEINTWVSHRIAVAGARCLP
Protocol: In vitro ARG using the compound of Example 3 was performed on a frozen normal rat brain sections (sagittal cut, thickness at 20 um). After taken out from freezer for 15 min, the rat brain section was added 250 ul of buffer solution (50 mM Tris-HCl pH=7.4) which contains the compound of Example 3 with the concentration of 400 uCi/ml. The brain section was incubated with the incubation buffer at room temperature for 30 min, was then washed with blank fresh buffer solution for 5 min, repeated 3 times. The brain section was air-dried, exposed to a phosphor screen in a cassette in dark environment for 18 hours. The screen was then scanned then Typhoon™ FLA 7000 Image Analyzer (GE) to generate the autoradiography of the compound of Example 3 on rat brain section (FIG. 2). […] The distribution pattern matches IHC staining pattern described below.
The IHC staining was performed on a frozen normal rat brain section (sagittal cut, thickness at 10 um) which is adjacent to the brain section used in ARG described above. After taken out from freezer for 15 min, the rat brain section was added 4% paraformaldehyde and fixed for 20 min at room temperature. The section was then washed with fresh phosphate buffer solution (PBS, 0.01 M, pH=7.4) for 5 min, repeated 3 times, followed by treatment of hydrogen peroxide solution (3% in PBS) at room temperature for 20 min. […]

Sequence of human MGL from HeLa cells (Q99685 whole entry): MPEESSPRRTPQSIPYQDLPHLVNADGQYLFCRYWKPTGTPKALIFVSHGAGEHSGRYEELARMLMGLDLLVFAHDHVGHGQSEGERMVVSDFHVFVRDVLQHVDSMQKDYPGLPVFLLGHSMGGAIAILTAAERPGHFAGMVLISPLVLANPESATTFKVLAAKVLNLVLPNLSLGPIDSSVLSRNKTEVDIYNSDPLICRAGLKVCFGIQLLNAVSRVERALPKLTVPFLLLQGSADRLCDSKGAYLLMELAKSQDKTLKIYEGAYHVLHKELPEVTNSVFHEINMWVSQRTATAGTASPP

SMILES: C[C@H]1c2nn(C)c(-c3cc(F)cc(F)c3)c2CCN1C(=O)c1c(F)cccc1Cl [Example 1, (S)-(2-Chloro-6-fluorophenyl)(3-(3,5-difluorophenyl)-2,7-dimethyl-2,4,5,7-tetrahydro-6H-pyrazolo[3,4-c]pyridin-6-yl)methanone]
- IC50 [1]: 2.3 pM

SMILES: C[C@H]1c2nn(C)c(-c3cc(F)cc(F)c3)c2CCN1C(=O)c1c([18F])cccc1Cl [Example 3]
- ARG signals (regional distribution) (MGL): high in hippocampus, cortex, cerebellum and thalamus regions and low in brainstem
